# Measurements published in PubChem BioAssay AID2060484 (Molecular Pharmacology Branch, DTP, NCI, 2025).
# pIC50: −log10 of the molar value.
# Tested on: SUM149PT spheroids with HUVEC/MSC, viability
# Assay: Anticancer human tumor SUM149PT cell line growth inhibition [GQUAD];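 further: spheroids exposed to drugs for seven days before readout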;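 on viability, T/C: percent viability relative to DMSO vehicle control taken as 100%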
# Conditions: for pIC50: curve of first compound; for viability, T/C: stronger effect = lower value
# In short: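 Multi-cell-type spheroids of tumor cells with HUVEC and mesenchymal stem cells, treated with drug combinations. Concentrations descend in half-log steps from near clinical Cmax, or from 10 microM where Cmax is unknown; viability read-out.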
# [1] = second compound 0.0316 µM, first compound 0.0316 µM
# [2] = second compound 0.0316 µM, first compound 0.316 µM
# [3] = second compound 0.1 µM, first compound 0.0316 µM
# [4] = second compound 0.1 µM, first compound 0.316 µM
# [5] = second compound 0.316 µM, first compound 0.0316 µM
# [6] = second compound 0.316 µM, first compound 0.316 µM
# [7] = second compound 1 µM, first compound 0.0316 µM
# [8] = second compound 1 µM, first compound 0.316 µM
# [9] = second compound 3.16 µM, first compound 0.0316 µM
# [10] = second compound 3.16 µM, first compound 0.316 µM
# [11] = second compound 10 µM, first compound 0.0316 µM
# [12] = second compound 10 µM, first compound 0.316 µM
smiles,measurement,setting,value
CCc1c2c(nc3ccc(O)cc13)-c1cc3c(c(=O)n1C2)COC(=O)[C@]3(O)CC + Cc1cnc(CNC(=O)c2c(=O)c3ccc(N4CCCN(C)CC4)nc3n3c2sc2ccccc23)cn1,pIC50,second compound 0.0316 µM,> 9.00
same,pIC50,second compound 0.1 µM,> 9.00
same,pIC50,second compound 0.316 µM,> 9.00
same,pIC50,second compound 1 µM,> 9.00
same,pIC50,second compound 3.16 µM,> 9.00
same,pIC50,second compound 10 µM,> 9.00
same,"viability, T/C","second compound 0.0316 µM, first compound 0.000999 µM",45%
same,"viability, T/C","second compound 0.0316 µM, first compound 0.00316 µM",30.6%
same,"viability, T/C","second compound 0.0316 µM, first compound 0.00999 µM",42.1%
same,"viability, T/C",[1],30.6%
same,"viability, T/C","second compound 0.0316 µM, first compound 0.0999 µM",25.9%
same,"viability, T/C",[2],12.1%
same,"viability, T/C","second compound 0.1 µM, first compound 0.000999 µM",38.9%
same,"viability, T/C","second compound 0.1 µM, first compound 0.00316 µM",40.9%
same,"viability, T/C","second compound 0.1 µM, first compound 0.00999 µM",44.6%
same,"viability, T/C",[3],38.9%
same,"viability, T/C","second compound 0.1 µM, first compound 0.0999 µM",25.1%
same,"viability, T/C",[4],10.2%
same,"viability, T/C","second compound 0.316 µM, first compound 0.000999 µM",38.7%
same,"viability, T/C","second compound 0.316 µM, first compound 0.00316 µM",42.8%
same,"viability, T/C","second compound 0.316 µM, first compound 0.00999 µM",41.1%
same,"viability, T/C",[5],33.8%
same,"viability, T/C","second compound 0.316 µM, first compound 0.0999 µM",21.8%
same,"viability, T/C",[6],10.8%
same,"viability, T/C","second compound 1 µM, first compound 0.000999 µM",37%
same,"viability, T/C","second compound 1 µM, first compound 0.00316 µM",41.2%
same,"viability, T/C","second compound 1 µM, first compound 0.00999 µM",37.1%
same,"viability, T/C",[7],35.5%
same,"viability, T/C","second compound 1 µM, first compound 0.0999 µM",19.7%
same,"viability, T/C",[8],8.28%
same,"viability, T/C","second compound 3.16 µM, first compound 0.000999 µM",33.1%
same,"viability, T/C","second compound 3.16 µM, first compound 0.00316 µM",38.7%
same,"viability, T/C","second compound 3.16 µM, first compound 0.00999 µM",37.1%
same,"viability, T/C",[9],31%
same,"viability, T/C","second compound 3.16 µM, first compound 0.0999 µM",21.9%
same,"viability, T/C",[10],3.55%
same,"viability, T/C","second compound 10 µM, first compound 0.000999 µM",0.16%
same,"viability, T/C","second compound 10 µM, first compound 0.00316 µM",3.09%
same,"viability, T/C","second compound 10 µM, first compound 0.00999 µM",0.98%
same,"viability, T/C",[11],1.56%
same,"viability, T/C","second compound 10 µM, first compound 0.0999 µM",1.51%
same,"viability, T/C",[12],1.72%
COc1cc(C2c3cc4c(cc3C(OC3OC5COC(C)OC5C(O)C3O)C3COC(=O)C23)OCO4)cc(OC)c1O (centres undefined) + Cc1cnc(CNC(=O)c2c(=O)c3ccc(N4CCCN(C)CC4)nc3n3c2sc2ccccc23)cn1,pIC50,second compound 0.0316 µM,6.44
same,pIC50,second compound 0.1 µM,6.52
same,pIC50,second compound 0.316 µM,6.90
same,pIC50,second compound 1 µM,> 7.50
same,pIC50,second compound 3.16 µM,> 7.50
same,pIC50,second compound 10 µM,> 7.50
same,"viability, T/C",[1],82.8%
same,"viability, T/C","second compound 0.0316 µM, first compound 0.1 µM",59.1%
same,"viability, T/C",[2],48.2%
same,"viability, T/C","second compound 0.0316 µM, first compound 1 µM",45.8%
same,"viability, T/C","second compound 0.0316 µM, first compound 3.16 µM",27.3%
same,"viability, T/C","second compound 0.0316 µM, first compound 10 µM",13.3%
same,"viability, T/C",[3],67.7%
same,"viability, T/C","second compound 0.1 µM, first compound 0.1 µM",52.1%
same,"viability, T/C",[4],52.5%
same,"viability, T/C","second compound 0.1 µM, first compound 1 µM",42%
same,"viability, T/C","second compound 0.1 µM, first compound 3.16 µM",24%
same,"viability, T/C","second compound 0.1 µM, first compound 10 µM",11.5%
same,"viability, T/C",[5],57.8%
same,"viability, T/C","second compound 0.316 µM, first compound 0.1 µM",47.4%
same,"viability, T/C",[6],44.5%
same,"viability, T/C","second compound 0.316 µM, first compound 1 µM",40.1%
same,"viability, T/C","second compound 0.316 µM, first compound 3.16 µM",25.6%
same,"viability, T/C","second compound 0.316 µM, first compound 10 µM",12.4%
same,"viability, T/C",[7],45.7%
same,"viability, T/C","second compound 1 µM, first compound 0.1 µM",45.9%
same,"viability, T/C",[8],42.2%
same,"viability, T/C","second compound 1 µM, first compound 1 µM",39%
same,"viability, T/C","second compound 1 µM, first compound 3.16 µM",24.5%
same,"viability, T/C","second compound 1 µM, first compound 10 µM",13.4%
same,"viability, T/C",[9],39.5%
same,"viability, T/C","second compound 3.16 µM, first compound 0.1 µM",38.1%
same,"viability, T/C",[10],35.6%
same,"viability, T/C","second compound 3.16 µM, first compound 1 µM",39.6%
same,"viability, T/C","second compound 3.16 µM, first compound 3.16 µM",24.9%
same,"viability, T/C","second compound 3.16 µM, first compound 10 µM",14.3%
same,"viability, T/C",[11],0.14%
same,"viability, T/C","second compound 10 µM, first compound 0.1 µM",12.2%
same,"viability, T/C",[12],31.4%
same,"viability, T/C","second compound 10 µM, first compound 1 µM",19%
same,"viability, T/C","second compound 10 µM, first compound 3.16 µM",1.9%
same,"viability, T/C","second compound 10 µM, first compound 10 µM",3.26%
